We go through 21 molecules from PubChem BioAssay (NCI).

Some test systems named below: A549 NSCLC; UACC-62 melanoma; CAKI-1 renal; K-562 leukemia; EKVX NSCLC; MOLT-4 leukemia; SK-MEL-28 melanoma; NCI-H460 lung; SNB-75 CNS.
What all share (test): NCI tumour cell line growth inhibition, 48 h

SMILES strings stand for the structures. Where “and” joins values, the source holds several entries; their conditions need not be identical. Identical values can stand only once.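 Protocol summary: plate cells (96-well), add compound at 5 concentrations, incubate 48 h, interpolate endpoints linearly. At the GI50, growth is halved. TGI is the concentration that stops growth completely.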

`CCC1=CC2CN3Cn4c(c(COCc5c6n(c7ccccc57)CN5CC7C=C(CC)C5C6(C(=O)OC)C7)c5ccccc54)C(C(=O)OC)(C2)C13`: the TGI in the assay on A549 NSCLC, in the assay with UACC-62 melanoma, in the assay on CAKI-1 renal, in the assay on K-562 leukemia, with EKVX NSCLC and in the assay on MOLT-4 leukemia was more than 100 µM in each case. Besides, the TGI in the assay with SK-MEL-28 melanoma and with NCI-H460 lung was more than 100 µM in each case.
`COc1cc2cc(Oc3ccc(NC(=O)c4cc(C(F)(F)F)cc(C(F)(F)F)c4)cc3)c(C)nc2cc1OC`: the GI50 with A549 NSCLC was 3.08 µM; with CAKI-1 renal, 1.5 µM; with K-562 leukemia it was 2.34 µM; in the assay with EKVX NSCLC it was 2.04 µM; in the assay with SNB-75 CNS, 41.5 µM; with MOLT-4 leukemia, 3.71 µM. Also, the GI50 in the assay with SK-MEL-28 melanoma was more than 50 µM; in the assay with NCI-H460 lung it was 2.16 µM. The TGI with A549 NSCLC, in the assay on CAKI-1 renal, with K-562 leukemia, with EKVX NSCLC, in the assay with SNB-75 CNS and in the assay with MOLT-4 leukemia was more than 50 µM throughout. In addition, the TGI in the assay on SK-MEL-28 melanoma and in the assay with NCI-H460 lung was more than 50 µM each time.
As to `CCN1CCCC(NCc2c3ccccc3c(CNC3CCCN(CC)C3)c3ccccc23)C1` (stereo not given), the TGI in the assay with A549 NSCLC was more than 100 µM; in the assay on UACC-62 melanoma, 26.8 µM; in the assay with CAKI-1 renal it was 50 µM; in the assay with K-562 leukemia, 42.6 µM; in the assay with EKVX NSCLC, 35.9 µM; in the assay on SNB-75 CNS it was 25 µM. The figures for the TGI with MOLT-4 leukemia, in the assay with SK-MEL-28 melanoma and in the assay with NCI-H460 lung were 14.8 µM, 25.9 µM and 18.3 µM, respectively.
For `CSC(=Nc1ccccc1)N(c1ccccc1)c1nc(=[N+](C)C)ss1`, the TGI in the assay with A549 NSCLC turned out to be 33.7 µM; with UACC-62 melanoma, 1.74 µM; in the assay with CAKI-1 renal, 11.3 µM; in the assay on K-562 leukemia it was 2.89 µM; in the assay on EKVX NSCLC, 29.5 µM; in the assay on SNB-75 CNS, 16.3 µM. In addition, the TGI in the assay on MOLT-4 leukemia was found to be 7.54 µM; in the assay on SK-MEL-28 melanoma it was 2.83 µM; with NCI-H460 lung it was 18.1 µM.
Consider `Cc1cn(-c2cc(C(=O)Nc3cccc(-n4ccc5c(NC(=O)c6ccccc6)nccc54)c3)cc(C(F)(F)F)c2)cn1`, for which the GI50 was 0.502 µM with A549 NSCLC; 0.366 µM in the assay with UACC-62 melanoma; 0.52 µM in the assay on CAKI-1 renal; 0.292 µM in the assay on K-562 leukemia; 2.32 µM in the assay with EKVX NSCLC; 0.252 µM in the assay with SNB-75 CNS. For the same molecule, the GI50 is 0.531 µM with MOLT-4 leukemia, 0.546 µM with SK-MEL-28 melanoma and 0.29 µM with NCI-H460 lung. The TGI with A549 NSCLC came out at 5.34 µM; in the assay on UACC-62 melanoma, 12.7 µM; in the assay on CAKI-1 renal it was 2.99 µM; in the assay with EKVX NSCLC, 30.2 µM; with SNB-75 CNS, 3.27 µM; with MOLT-4 leukemia, 10.6 µM. The TGI with SK-MEL-28 melanoma was found to be 5.41 µM; in the assay with NCI-H460 lung, 1.2 µM.
For `N=C(N)c1ccc(-c2ccc(-c3cccs3)s2)cc1`, the GI50 in the assay with UACC-62 melanoma is 1.68 µM; in the assay with CAKI-1 renal, 1.89 µM; in the assay with SNB-75 CNS, 1.69 µM; with SK-MEL-28 melanoma it was 1.63 µM. In addition, the TGI with UACC-62 melanoma amounted to 3.18 µM; in the assay with CAKI-1 renal, 4.23 µM; with SNB-75 CNS, 3.17 µM; in the assay on SK-MEL-28 melanoma, 3.07 µM.
For `COc1c(O)c2c3c(c(C)cc(O)c3c1O)C(=O)C(O)(C(C)(C)C(C)=O)C2=O` (stereo not given), the TGI in the assay with A549 NSCLC, in the assay with UACC-62 melanoma, in the assay with CAKI-1 renal, in the assay with K-562 leukemia, with SNB-75 CNS and with MOLT-4 leukemia was more than 100 µM each time. Further, the TGI in the assay with SK-MEL-28 melanoma and in the assay on NCI-H460 lung was more than 100 µM throughout. Moreover, the GI50 in the assay with UACC-62 melanoma was 39.9 µM and > 100 µM; with K-562 leukemia it was 34.4 µM and > 100 µM.
In the case of `C=Cc1ccc(C)[n+](C[Si](C)(C)O[Si](C)(C)C[n+]2cc(C=C)ccc2C)c1`, the TGI in the assay on A549 NSCLC, in the assay on UACC-62 melanoma, in the assay with CAKI-1 renal, in the assay on K-562 leukemia, in the assay with EKVX NSCLC and in the assay on SNB-75 CNS was more than 100 µM throughout. The TGI in the assay with MOLT-4 leukemia, with SK-MEL-28 melanoma and in the assay on NCI-H460 lung was more than 100 µM throughout.
Regarding `O=C(NC(COC(=O)C(Cc1ccccc1)NC(=O)c1ccccc1)Cc1ccccc1)c1ccccc1` (stereo not given), the TGI in the assay on A549 NSCLC, with UACC-62 melanoma, in the assay with K-562 leukemia, in the assay with EKVX NSCLC, in the assay with SNB-75 CNS and in the assay on MOLT-4 leukemia was more than 50 µM in each case. The TGI in the assay on SK-MEL-28 melanoma and in the assay with NCI-H460 lung was more than 50 µM each time.
As for `COc1ccc(CC2c3c(cc(OC)c(OC)c3OC)CCN2C)cc1OC` (stereo not given), the TGI in the assay with A549 NSCLC, with CAKI-1 renal, in the assay with K-562 leukemia, in the assay with EKVX NSCLC, in the assay with SNB-75 CNS and with MOLT-4 leukemia was more than 100 µM in each case. Further, the TGI with SK-MEL-28 melanoma and in the assay with NCI-H460 lung was more than 100 µM throughout.
Turning to `CC1=NN(C(=O)CC(=O)Nc2ccccc2F)C(=O)C1N=Nc1ccccc1[N+](=O)[O-]` (stereo not given), the TGI is more than 100 µM in the assay with A549 NSCLC; 69 µM in the assay with UACC-62 melanoma; more than 100 µM with CAKI-1 renal; more than 100 µM in the assay with K-562 leukemia; more than 100 µM with EKVX NSCLC; more than 100 µM with SNB-75 CNS. The TGI in the assay on MOLT-4 leukemia and with SK-MEL-28 melanoma was more than 100 µM each time.
Consider `CC12CCC3C(CCC4CC(OC(=O)Cc5ccc(N(CCCl)CCCl)cc5)CCC43C)C1CCC(=O)N2` (stereo not given), for which the TGI in the assay on A549 NSCLC was found to be 29 µM; in the assay on CAKI-1 renal, 29.5 µM; with K-562 leukemia, 35.3 µM; in the assay on EKVX NSCLC it was 30.5 µM; in the assay on SNB-75 CNS, 28.9 µM; with MOLT-4 leukemia, 24.4 µM. Moreover, the TGI was determined as 30.9 µM in the assay on SK-MEL-28 melanoma and 22.4 µM in the assay with NCI-H460 lung.
With `CC(C(=O)N1C(=O)N(C(=O)C(C)C(O)c2ccccc2)C2CCCCC21)C(O)c1ccccc1` (stereo not given), the TGI in the assay with A549 NSCLC is more than 100 µM; in the assay on UACC-62 melanoma, more than 100 µM; with EKVX NSCLC, more than 100 µM; in the assay on MOLT-4 leukemia it was 87.1 µM; in the assay with SK-MEL-28 melanoma it was more than 100 µM; in the assay with NCI-H460 lung, more than 100 µM.
Regarding `CC(=O)OCC1OC(n2cc(I)c(=O)[nH]c2=O)C(OC(C)=O)C(OC(C)=O)C1OC(C)=O` (stereo not given), the TGI in the assay with A549 NSCLC, in the assay with UACC-62 melanoma, in the assay on CAKI-1 renal, in the assay on K-562 leukemia, in the assay on EKVX NSCLC and in the assay on SNB-75 CNS was more than 100 µM in each case. The TGI with MOLT-4 leukemia, with SK-MEL-28 melanoma and in the assay on NCI-H460 lung was more than 100 µM in each case.
As to `COc1cc2nc(-c3cccs3)oc(=O)c2cc1OC`, the TGI in the assay with A549 NSCLC, in the assay with UACC-62 melanoma, with CAKI-1 renal, with K-562 leukemia, with EKVX NSCLC and in the assay on SNB-75 CNS was more than 100 µM each time. In addition, the TGI with MOLT-4 leukemia, in the assay with SK-MEL-28 melanoma and in the assay on NCI-H460 lung was more than 100 µM in each case.
`O=C1Sc2ccccc2C(=O)N2CSCC12` (stereo not given): the TGI in the assay on A549 NSCLC, in the assay with UACC-62 melanoma, in the assay on K-562 leukemia, with EKVX NSCLC, in the assay on SNB-75 CNS and in the assay with MOLT-4 leukemia was more than 100 µM each time. The TGI in the assay with SK-MEL-28 melanoma and in the assay with NCI-H460 lung was more than 100 µM each time.
Consider `O=C(NCCCN(CCCCN(CCCNC(=O)C(F)(F)F)Cc1ccc2ccccc2c1)Cc1ccc2ccccc2c1)C(F)(F)F`, for which the TGI in the assay with A549 NSCLC is more than 100 µM; in the assay on UACC-62 melanoma, 5.41 µM; with K-562 leukemia it was 7.34 µM; in the assay on EKVX NSCLC it was more than 100 µM; in the assay on SNB-75 CNS, more than 100 µM; in the assay with MOLT-4 leukemia, more than 100 µM. Further, the TGI in the assay on SK-MEL-28 melanoma is 5.88 µM; with NCI-H460 lung it was 23.7 µM.
Take `COc1ccc(-c2oc(/C=N/NC(N)=S)c([N+](=O)[O-])c2-c2ccc(OC)c(OC)c2)cc1OC`: the TGI is more than 100 µM in the assay with A549 NSCLC; 78.5 µM with UACC-62 melanoma; more than 100 µM with CAKI-1 renal; 80.4 µM in the assay on EKVX NSCLC; 72.3 µM in the assay on SNB-75 CNS; 86.1 µM in the assay with SK-MEL-28 melanoma.
Regarding `CCN(CC)CCCNC(=O)c1ccc([N+](=O)[O-])cc1O`, the TGI with A549 NSCLC, with UACC-62 melanoma, with CAKI-1 renal, with K-562 leukemia, in the assay on EKVX NSCLC and in the assay on SNB-75 CNS was more than 100 µM throughout. For the same molecule, the TGI in the assay with MOLT-4 leukemia, in the assay on SK-MEL-28 melanoma and with NCI-H460 lung was more than 100 µM in each case.
As to `CCOC(=O)c1nc2ccc(C(F)(F)F)cc2nc1Oc1ccc(C#N)cc1`, the TGI was 36.5 µM with UACC-62 melanoma; 59.1 µM with CAKI-1 renal; more than 100 µM in the assay on K-562 leukemia; 30.2 µM in the assay with EKVX NSCLC; 28 µM in the assay on SNB-75 CNS; more than 100 µM in the assay with MOLT-4 leukemia. The TGI with SK-MEL-28 melanoma and in the assay on NCI-H460 lung was more than 100 µM in each case.
Regarding `O=C(CN(c1ccccc1)c1ccccc1)N1c2ccccc2C2C=CC=CC21` (stereo not given), the TGI with A549 NSCLC was more than 54.9 µM; in the assay with UACC-62 melanoma, 50.6 µM; in the assay on CAKI-1 renal, 32.2 µM; in the assay on K-562 leukemia, more than 51.5 µM; in the assay on EKVX NSCLC, more than 59.4 µM; in the assay with SNB-75 CNS, 52.3 µM. Moreover, the values for the TGI in the assay on MOLT-4 leukemia, in the assay with SK-MEL-28 melanoma and with NCI-H460 lung were more than 22.6 µM, more than 56 µM and 36.1 µM, respectively.
